Measured values: patent US20060166271A1, “Non-radioactive schilling test” (priority 2003, published 2006)
“And” between values parts separate entries of the source, which are not always exact repeats. Identical values can stand only once.

Assays:
[1] = Vitamin B12 absorption from serum vitamin B12, total TC and holo-TC before and after oral vitamin B12, healthy subjects; assay type: in vivo, human; conditions: for Holo-TC, median: serum
From the text: (§1) The subjects participating in the study were 31 healthy subjects recruited in October 2002. None of them suffered from known disorders related to vitamin B12 deficiency. Persons with chronic systemic disease, persons taking any kind of medical treatment, including vitamin tablets within the past week and persons not being able to give written informed consent were excluded. The age of the healthy subjects ranged from to 25 to 57 (mean 40) years. There were 9 men and 22 women. We further included seven patients (age 22-39 years, five men and two women) who had been referred to the out-patient clinic of internal medicine department during 2003 because vitamin B12 malabsorption was suspected. Three of the seven patients have previously been diagnosed as Crohn's disease. The diagnosis of the remaining four patients was not clear. Written informed consent was obtained from all subjects, and the Research Ethics Committee of Aarhus County approved the study protocol (2002.0224).
The absorption of vitamin B12 was evaluated from analysis of serum vitamin B12, total TC, and holo-TC on samples obtained before and after oral administration of vitamin B12.
(§2) In healthy subjects samples were taken at 8:00 a.m. on the day before vitamin B12 intake (−1) and on day 0, 1, 2, and 6. After the blood sample was removed on day 0, an oral dose of 9 μg vitamin B12 (Natur Drogeriet A/S, Hoerning, Denmark) was given three times, with 6 h between the doses (8 a.m., 2 p.m., and 8 p.m. (time points were allowed to deviate ±45 min). One healthy subject was unavailable for delivering a blood sample on day 6. The absorption of vitamin B12 in seven patients was evaluated by the Schilling test I and by the design mentioned above except that the blood samples were obtained only on day 0 and day 1. The Schilling test I was performed after our alternative approach.
The vitamin B12 tablets were given with either water or orange juice. The subjects were allowed to have a light breakfast 30 to 60 min before blood sampling, not including any diary products, but were otherwise allowed to eat their normal diet. The blood samples were centrifuged within 60 minutes and were stored at −80° C. until further processed.
Serum vitamin B12 was determined by a commercial method (Bayer corporation, NY) on a Centaur equipment (analytical imprecision<10%). Serum total TC and holo-TC were measured by ELISA as recently described (Nexø et al., 2000; 2002), but modified to allow the use of an automated ELISA analyser (BEP-2000, Dade Behring, Germany). The following modification was performed; all incubations were performed at 37° C. The analytical imprecision was 7% for total TC (mean=934 pmol/L, n=91) and 8% for holo-TC (mean=38 pmol/L, n=41). The controls were run over 12 months for total TC and 6 months for holo-TC. The reference interval was established from analysing 161 samples obtained from healthy blood donors (age interval; 21-65). The reference interval was 700-1400 pmol/L for total TC, ≧50 pmol/L for holo-TC and ≧0.05 for TC saturation. Haematological parameters were analysed on the Coulter Counter (Beckman Coulter CA). Plasma creatinine was measured using the Jaffe method and a Roche Cobas integra 700 autoanalyzer (analytical imprecision <3%).
Alterations (increase or decrease) in parameters as a function of time were analysed by comparing the changes obtained on the same individuals relative to baseline (day 0) with the theoretical median “0” assigned for day 0. […] P-values <5% were regarded as statistically significant. Data were analysed using SPSS10.0 (SPSS Inc.) and the GraphPad (Prism2) software.

[2] = Vitamin B12 absorption from serum holo-TC and TC saturation before and after oral vitamin B12, patients with suspected malabsorption; assay type: in vivo, human; conditions: individual patients with Crohn's disease, day 1-day 0, oral 3 times 9 μg
From the text: as §1, with “The diagnosis of the remaining four patients was not clear. Written informed consent was obtained from all subjects, and the Research Ethics Committee of Aarhus County approved the study protocol (2002.0224).” left out
The absorption of vitamin B12 was evaluated from analysis of serum vitamin B12, total TC, and holo-TC on samples obtained before and after oral administration of vitamin B12. […]
Serum vitamin B12 was determined by a commercial method (Bayer corporation, NY) on a Centaur equipment (analytical imprecision<10%). Serum total TC and holo-TC were measured by ELISA as recently described (Nexø et al., 2000; 2002), but modified to allow the use of an automated ELISA analyser (BEP-2000, Dade Behring, Germany). […] Haematological parameters were analysed on the Coulter Counter (Beckman Coulter CA). […]

[3] = Schilling test I (urinary excretion of radioactive vitamin B12 over 24 hours); assay type: in vivo, human; conditions: individual patients with Crohn's disease; 1 μg oral Co-57 tagged vitamin B12, 24 hour urine; normal 10-40%
Description: as §2
The Schilling test I was performed as described previously (Chanarin, 1979). Briefly, a fasting patient is given a 1 μg oral dose of vitamin B12, which is tagged with radioactive cobalt (Co-57). Two hours after the oral dose the patient is then injected intramuscularly with 1000 μg of non-labeled vitamin B12. A 24 hour urine collection is initiated. The percentage of the administered dose excreted in the urine over 24 hours is then determined. Urinary excretion of 10-40% of the administered dose is considered normal.

[4] = oral dose; cited from earlier work
[5] = DAY 1 after oral 3 times 9 μg vitamin B12, 31 healthy subjects
[6] = DAY 2 after oral 3 times 9 μg vitamin B12, 31 healthy subjects
[7] = DAY 6 after oral 3 times 9 μg vitamin B12, 31 healthy subjects
[8] = control subjects after omitting outliers (n=2)
[9] = one day after oral dose of three times 9 μg, healthy subjects (discussion)
[10] = relative to baseline (day 0), oral 3 times 9 μg, healthy subjects
[11] = relative to baseline (day 0), oral 3 times 9 μg, n=31 healthy subjects

Question: For cobalamin [vitamin B12], which “Serum vitamin B12, median” value [1, 5] is on record?
Answer: Its value is 279 pmol/L.

Question: And the “TC saturation (holo-TC/total-TC), median” value [1, 5]?
Answer: Its value is 0.13 fraction.

Question: And the “Holo-TC, median” value [1, 5]?
Answer: The value was 118 pmol/L.

Question: And the “Serum vitamin B12, median” value [1, 6]?
Answer: Its value is 253 pmol/L.

Question: What about the “TC saturation (holo-TC/total-TC), median” value [1, 6] of the same substance?
Answer: Its value is 0.11 fraction.

Question: What about the “Holo-TC, median” value [1, 6] of the same substance?
Answer: Its value is 87 pmol/L.

Question: And the “Serum vitamin B12, median” value [1, 7]?
Answer: The value was 260 pmol/L.

Question: What about the “TC saturation (holo-TC/total-TC), median” value [1, 7] of the same substance?
Answer: The value was 0.09 fraction.

Question: What about the “Holo-TC, median” value [1, 7] of the same substance?
Answer: Its value is 80 pmol/L.

Question: And the “Minimum increase for TC saturation (day 1-day 0)” value [1, 8]?
Answer: The value was 0.02.

Question: What about the “Minimum increase for holo-TC (day 1-day 0)” value [1, 8] of the same substance?
Answer: The value was 15 pmol/L.

Question: What about the “Increase of TC saturation, median value” [1, 9] of the same substance?
Answer: The value was “around 50%”.

Question: What about the “Increase of holo TC, median value” [1, 9] of the same substance?
Answer: Its value is “around 50%”.

Question: And the “Absolute increase in serum vitamin B12, median (range)” value [1, 10]?
Answer: The value was 36 (−27-290) pmol/L.

Question: And the “Percentage increase in serum vitamin B12, median (range)” value [1, 10]?
Answer: The value was 14 (−8-+51) % and 14%.

Question: And the “Maximal absolute increase in TC saturation, median (range)” value [1, 11]?
Answer: Its value is 0.04 (0-0.23) fraction.

Question: What about the “Maximal absolute increase in holo-TC, median (range)” value [1, 11] of the same substance?
Answer: Its value is 34 (0-149) pmol/L.

Question: What about the “Maximal percentage increase in TC saturation, median (range)” value [1, 11] of the same substance?
Answer: The value was 52 (−2-+128) %.

Question: And the “Maximal percentage increase in holo-TC, median (range)” value [1, 11]?
Answer: The value was 39 (0-+108) %.

Question: And the “Increase in TC saturation after vitamin B12 intake” value [2]?
Answer: Its value is 0.004 and 0.01 (2×).

Question: And the “Increase in holo-TC after vitamin B12 intake” value [2]?
Answer: The value was 3 pmol/L and 7 pmol/L and 14 pmol/L.

Question: What about the “Schilling test I, percentage of vitamin B12 excreted in the urine” value [3] of the same substance?
Answer: The value was 2% and 10% and 15%.

Question: What about the “Refractory phase with less absorption after ingestion of a dose” value [4] of the same substance?
Answer: Its value is “about 3 hours”.
